Patent publication US9012403B2, “Peptides as active agents to stabilize biological barriers” (XiberScience GmbH, priority 2010, dated 2015)
Marks after values point to notes of the source that are not given here.

Tests used:
[1] = test system: Phosphorylated Myosin Light Chain (MLC) and actin stress fibers; test: MLC phosphorylation and actin stress fiber formation in Caco-2 cells (microscopy score); assay type: cell-based; settings: CaCo-2, PMA 1 μg/ml, with or without peptide 50 μg/ml
Protocol: (§1) To measure MLC phosphorylation and actin stress fiber formation, the following cell lines were used: Caco-2, ECV304 and HpMec. All cells were grown at standard conditions (37° C., 5% CO2 and 95% rH). Culture Medium used: for Caco-2: DMEM+1 mM sodium pyruvate+20% FCS+1% Penicillin Streptomycin; for ECV 304: RPMI 1640+10% FCS+1% Penicillin Streptomycin; and for HpMec: IMDM+25 mM Hepes+10% Human Serum+1% Penicillin Streptomycin+1% L-Glutamine+ECGS/Heparin 2 ml. 4 h before the experiment, cells were starved by serum withdrawal. To induce GEF-activity, cells were stimulated with thrombin, LPS or PMA for the indicated time in presence or absence of 50 μg/ml XIB1-a or XIB1-b. After stimulation, cells were fixed using 4% PFA. Phospho MLC was detected by using the “rabbit anti phosphor-myosin light chain antibody” from Chemicon in a concentration of 3 μl/ml in PBS (Gibco) supplemented with 0.1% Triton X-100. As detection antibody, the Alexa 448 tagged “anti Rabbit IgG Antibody” from Invitrogen was used in a concentration of 0.5 μl/ml in PBS (Gibco) supplemented with 0.1% Triton X-100. Aktin was detected using TRITC-labeled Phalloidin in a concentration of 0.5 μl/ml in PBS (Gibco) supplemented with 0.1% Triton. Stained cells were analyzed by using a Zeiss Laser Scan microscope. Evaluation of the cyto-skeletal activation was performed by 2 independent observers that were blinded to the conditions. Evaluation criteria were set as follows:
(§2) Actin: parallel actin bundles absent=0; distinct bundle formation=1; prominent parallel bundles=2; Phospho-MLC: present at cell poles=0; slight co-localization with actin bundles=1; prominent co-localization with actin bundles=2

[2] = test system: GTP-bound RhoA; test: GTP-associated active RhoA in Caco-2 membrane fraction (western blot); assay type: cell-based; settings: for GTP-bound RhoA, relative values compared to unstimulated control (Mean): CaCo-2, PMA 1 μg/ml, with or without peptide 50 μg/ml; for increase of RhoA-activity: CaCo-2 cells, PMA-stimulus
Protocol: (§3) To measure the GTP-associated active RhoA, the following cell lines were used: Caco-2, ECV304 and HpMec. All cells were grown at standard conditions (37° C., 5% CO2 and 95% rH). 4 h before the experiment, cells were starved by serum withdrawal. To induce GEF-activity, cells were stimulated with thrombin, LPS or PMA for the indicated time in presence or absence of 50 μg/ml XIB1-a or XIB1-b. After stimulation, membrane fractions were prepared by using the commercial available “Compartemental Protein Extraction Kit” from Biochain Institutes. Membrane fractions were prepared according to the manufacturer instructions. The membrane fraction was separated on 15% polyacrylamide gel according to standard procedures of gel electrophoresis. The gels were afterwards blotted on a nitrocellulose membrane according to standard procedures of western blotting. GTP-bound RhoA was detected using RhoA-GTP monoclonal antibody from NewEast Inc. in a dilution of 1:5000. Protein bands were analyzed with the Dolphin-1D Gel analysis system (Wealtec).

[3] = test system: GEF; test: GEF-activity in membrane fractions of Caco-2 cells (RhoGEF Exchange Assay); assay type: cell-based; settings: for GEF-activity, relative values compared to unstimulated control (Mean): CaCo-2, PMA 1 μg/ml, with or without peptide 50 μg/ml
Protocol: (§4) To measure the GEF-inhibitory effect, the following cell lines were used: Caco-2 (epithelial cells from adeno-carcinoma), ECV304 (epithelial cells from bladder carcinoma) and HpMec (endothelial cells, immortalized pulmonary micro-vascular cells). All cells were grown at standard conditions (37° C., 5% CO2 and 95% relative humidity (rH)). Culture Medium used for Caco-2: DMEM+1 mM sodium pyruvate+20% FCS+1% Penicillin Streptomycin; for ECV 304: RPMI 1640+10% FCS+1% Penicillin Streptomycin; and for HpMec: IMDM+25 mM Hepes+10% Human Serum+1% Penicillin Streptomycin+1% L-Glutamine+ECGS/Heparin 2 ml. 4 h before the experiment, cells were starved by serum withdrawal. To induce GEF-activity, cells were stimulated with thrombin, lipopolysaccharide (LPS) or PMA for the indicated time in presence or absence of 50 μg/ml XIB1-a or XIB1-b. After stimulation, membrane fractions were prepared by using the commercial available “Compartemental Protein Extraction Kit” from Biochain institutes. Membrane fractions were prepared according to the manufacturer instructions. GEF-activity in membrane lysates was determined by using “RhoGEF Exchange Assay Biochem Kit” from Cytoskeleton Inc. according to manufacturer instructions. GEF-activity was measured as fluorescence at using the Fluoroskan Ascent FL 2.6 from Thermo Electron Corporation. The excitation Filter wavelength was set at 355 nm and the emission filter wavelength at 460 nm.

[4] = test system: Ventilator-Induced Lung Injury (VILI); test: Ventilator-induced lung injury (VILI) after LPS pre-challenge; assay type: in vivo; settings: mice, LPS + high tidal volume ventilation (LPS-HTV); i.v. 4 mg/kg loading, then 1 mg/kg/h
Protocol: Experiments were performed with healthy C57BL/6 (aged 8-10 weeks, with weights ranging from 19-25 g). All interventions were performed according to the guide lines of AAALAC. All experiment were approved by the Ethic committee of the University of Amsterdam.
Mice were challenged with LPS (dosage: 50 μg per mouse) (or saline), via intranasal injection 2 h before initiation of mechanical ventilation, to induce lung injury.
XIB1-1b (or random peptide) was administered i.v. 10 min before start of mechanical ventilation (dosage: 4 mg/kg loading dose, followed administration i.v. injections 1 mg/kg/h.
A Y-tube connector with 1.0 mm outer diameter and 0.6 mm inner diameter was surgically inserted into the trachea under general anesthesia. Mice were placed in a supine position and connected to a ventilator. Mice were pressure-controlled ventilated with either an inspiratory pressure of 10 cm H2O (resulting in VT˜7.5 mL/kg; low VT, LVT) or an inspiratory pressure of 18 cm H2O (resulting in VT˜15 mL/kg; high VT, HVT). Positive end-expiratory pressure (PEEP) is set at 2 cm H2O with both MV-strategies. The fraction of inspired oxygen was kept at 0.5 throughout the experiment. The inspiration to expiration ratio was kept at 1:1 throughout the experiment.
BALF was obtained by instilling 3 times 0.5 mL aliquots of saline by a 22-gauge Abbocath-T catheter (Abbott, Sligo, Ireland) into the trachea. Approximately, 1.0 mL of BALF was retrieved per mouse and cell counts were determined using a hemacytometer (Beckman Coulter, Fullerton, Calif.). Subsequently, differential counts were done on cytospin preparations stained with a modified Giemsa stain, Diff-Quick (Dade Behring AG, Düdingen, Switzerland). Supernatant was stored at −80° C.
Total protein levels in BALF are determined using a Bradford Protein Assay Kit (OZ Biosciences, Marseille, France) according to manufacturers' instructions with bovine serum albumin as standard. Mouse IgM was determined by ELISA by using anti-Mouse IgM sensitized 96-strip micro-well plates according to manufacturers' instructions (IMMUNO-TEK kit from ZeptoMetrix).

[5] = test system: LPS induced lung injury; test: LPS induced lung injury, bronchoalveolar lavage; assay type: in vivo; settings: mice, 6 h after LPS, n = 20
Protocol: Male C57Bl/6 Mice (Charles River, Germany) were kept at the animal facility of the Medical University of Vienna, feed with standard diet and water was provided ad libitum. All interventions were performed according to the guide lines of AAALAC (Association for Assessment and Accreditation of Laboratory Animal Care). All experiment were approved by the Ethic committee of the Medical University of Vienna. Mice were anesthetized with isoflouran and treated with 100 ng of LPS (E. coli O55:B5, Sigma Aldrich) intranasally. XIB1-a or XIB1-b was applied either intra-peritoneally (2×2 mg/kg) or via inhalation (2×4 mg/kg), first application was performed concomitantly with LPS administration, the second application was performed 1 h after the LPS inhalation.
The trachea was exposed through a midline incision and canulated with a sterile 20-gauge catheter (BD Venflon™, Becton Dickinson Infusion Therapy, Helsingborg, Sweden). Bilateral broncho-alveolar lavage fluid (BALF) was gained by instilling two 0.5 ml aliquots of sterile saline. Approximately 0.9-1 ml BALF was retrieved per mouse. Total cell numbers were counted from each sample using a hemo-cytometer (Türck chamber), BALF differential cell counts were done on cytospin preparations stained with Giemsa. For protein measurements, BALF was diluted 1:2 in buffer containing 300 mM NaCl, 30 mM Tris, 2 mM MgCl2, 2 mM CaCl2, and Pepstatin A, Leupeptin and Aprotinin (all 20 ng/ml; pH 7.4). Protein levels in BALF were measured using the BCA protein kit according to the manufacturer's instructions (Pierce, Rockford, Ill.).
In addition, the same set-up as described above was used for comparing the impact of XIB1-b compared to Bβ15-42 (PLoS ONE (2009), 4(4): e5391), a peptide derived from fibrin having the sequence […] (SEQ ID NO: 41). Bβ15-42 was added in the same manner as XIB1-b. Again, protein content and cell count of BALF was measured.

[6] = test system: GEF; test: GEF-activity in membrane fractions of ECV304 cells (RhoGEF Exchange Assay); assay type: cell-based; settings: ECV 304, Thrombin 1 U/ml, with or without peptide 50 μg/ml
Protocol: as §4

[7] = test system: GEF; test: GEF-activity in membrane fractions of HpMec cells (RhoGEF Exchange Assay); assay type: cell-based; settings: for increase in GEF-activity: HepMec cells, thrombin; for GEF-activity, relative values compared to unstimulated control (Mean): HpMec, Thrombin 1 U/ml, with or without peptide 50 μg/ml
Protocol: as §4

[8] = test system: Phosphorylated Myosin Light Chain (MLC) and actin stress fibers; test: MLC phosphorylation and actin stress fiber formation in ECV304 cells (microscopy score); assay type: cell-based; settings: ECV 304, Thrombin 1 U/ml, with or without peptide 50 μg/ml
Protocol: as §1, §2

[9] = test system: Phosphorylated Myosin Light Chain (MLC) and actin stress fibers; test: MLC phosphorylation and actin stress fiber formation in HpMec cells (microscopy score); assay type: cell-based; settings: Thrombin 1 U/ml, with or without peptide 50 μg/ml
Protocol: as §1, §2

[10] = test system: GTP-bound RhoA; test: GTP-associated active RhoA in HpMec membrane fraction (western blot); assay type: cell-based; settings: for increase in RhoA-activity: HepMec cells, thrombin; for GTP-bound RhoA, relative values compared to unstimulated control (Mean): HpMec, Thrombin 1 U/ml, with or without peptide 50 μg/ml
Protocol: as §3

[11] = test system: GTP-bound RhoA; test: GTP-associated active RhoA in ECV304 membrane fraction (western blot); assay type: cell-based; settings: ECV 304, Thrombin 1 U/ml, with or without peptide 50 μg/ml
Protocol: as §3

For `CCCCCCCCCCCCCC(=O)O[C@@H]1[C@@H](C)[C@@]2(O)[C@@H](C=C(CO)C[C@]3(O)C(=O)C(C)=C[C@@H]23)[C@@H]2C(C)(C)[C@]12OC(C)=O` [PMA, reference compound], the “MLC phosphorylation and actin stress fiber formation, evaluation score (Mean)” value ([1]; 1 min) was 3, the “MLC phosphorylation and actin stress fiber formation, evaluation score (Mean)” value ([1]; 5 min) was 3 and the “GTP-bound RhoA, relative values compared to unstimulated control (Mean)” value (shortened to “GTP-bound RhoA, relative values”) ([2]; 1 min) was 2.3. The “GTP-bound RhoA, relative values” value ([2]; 5 min) was 2.0, the “increase of RhoA-activity” value ([2]; after 5 mm of stimulation) was 2 fold and the “increase of RhoA-activity” value ([2]; after 1 min) was 2.3 fold. For the same compound, the “GEF-activity, relative values compared to unstimulated control (Mean)” value (from here on “GEF-activity, relative values”) ([3]; 1 min) was 2.5, the “GEF-activity, relative values” value ([3]; 5 min) was 1.8 and the “increase of GEF-activity” value ([3]; CaCo-2 cells, 1 min PMA-stimulus) was 2.5 fold.

In the case of “GGGGGSRRIPL (/note=“Description of artificial sequence variable insert”) [scrambled peptide, scrambled peptide control in the VILI experiment, reference compound]”, the “IgM content in the BALF” value [4] is reported as “No improvement”, the “neutrophil count in the BALF” value [4] is reported as “No improvement” and the “total cell count in the BALF” value [4] is reported as “No improvement”. For the same compound, the “total protein content in the BALF” value [4] was “No improvement”.

“GHRPLDKKKREEAPSLRPAPPPISGGGYR (/note=“Description of artificial sequence peptide Bbeta 15-42”) [Bβ15-42, a peptide derived from fibrin]” was tested, and the “albumine content of BALFs (mean +/ SD)” value ([5]; comparison with Bβ15-42 (Table 6), intraperitoneal application) was 160 ± 20 µg/mL, the “counts of neutrophils in the BALF (mean +/ SD)” value ([5]; comparison with Bβ15-42 (Table 6), intratracheal plus intraperitoneal application) was 35 +/− 10 neutrophils/ml (× 10^3) and the “albumine content of BALFs (mean +/ SD)” value ([5]; comparison with Bβ15-42 (Table 6, last section), intraperitoneal application as printed) was 152 ± 35 µg/mL.

In the case of Thrombin [reference compound], the “GEF-activity, relative values” value ([6]; 1 min) is reported as 5, the “GEF-activity, relative values” value ([6]; 5 min) is reported as 3.4 and the “increase in GEF-activity” value ([7]; after 1 min) is reported as 3.5 fold. The “increase in GEF-activity” value ([7]; after 5 min) was 3 fold, the “GEF-activity, relative values” value ([7]; 1 min) was 3.5 and the “GEF-activity, relative values” value ([7]; 5 min) was 3. For the same compound, the “MLC phosphorylation and actin stress fiber formation, evaluation score (Mean)” value ([8]; 1 min) was 4, the “MLC phosphorylation and actin stress fiber formation, evaluation score (Mean)” value ([8]; 5 min) was 4 and the “MLC phosphorylation and actin stress fiber formation, evaluation score (Mean)” value ([9]; 1 min) was 4. The “MLC phosphorylation and actin stress fiber formation, evaluation score (Mean)” value ([9]; 5 min) was 4, the “increase in RhoA-activity” value ([10]; after 1 min) was 3.8 fold and the “increase in RhoA-activity” value ([10]; after 5 min) was 3.2 fold. The “GTP-bound RhoA, relative values” value ([10]; 1 min) was 3.8, the “GTP-bound RhoA, relative values” value ([10]; 5 min) was 3.2 and the “GTP-bound RhoA, relative values” value ([11]; 1 min) was 4.3. The “GTP-bound RhoA, relative values” value ([11]; 5 min) was 3.2.
